MIC data for twelve compounds are collected here from ChEMBL document CHEMBL1155372, “Design and synthesis of novel deoxybenzoin derivatives as FabH inhibitors and anti-inflammatory agents” (Bioorg Med Chem Lett, 2010).

Values after ≈ are worked out from the molar mass of the structure shown.

One experiment has as its system Aspergillus niger. Kind of experiment: Antifungal activity against Aspergillus niger ATCC 16404. Format: functional.
`O=C(Cc1ccc(F)cc1)c1ccc(O)c(O)c1`: the MIC was > 50 µg/mL.

As to `O=[N+]([O-])c1ccc(/N=C(/Cc2ccc(F)cc2)c2ccc(O)c(O)c2O)cc1`, the MIC is > 50 µg/mL.

Turning to `O=C(Cc1ccc(Cl)cc1)c1ccc(O)c(O)c1`, the minimum inhibitory concentration (MIC) was > 50 µg/mL.

Consider `Oc1ccc(/C(Cc2ccc(F)cc2)=N\c2ccc(Cl)cc2)cc1O`, for which the MIC was > 50 µg/mL.

With `Oc1ccc(/N=C(/Cc2ccc(Cl)cc2)c2ccc(O)c(O)c2O)cc1`, the minimal inhibitory concentration (MIC) was > 50 µg/mL.

As for `Cc1ccc(/N=C(/Cc2ccc(Cl)cc2)c2ccc(O)c(O)c2)cc1`, the minimum inhibitory concentration (MIC) was > 50 µg/mL.

Take `Oc1ccc(/N=C(/Cc2ccc(F)cc2)c2ccc(O)cc2O)cc1`: the minimal inhibitory concentration (MIC) was > 50 µg/mL.

For `O=[N+]([O-])c1ccc(/N=C(/Cc2ccc(F)cc2)c2ccc(O)c(O)c2)cc1`, the minimum inhibitory concentration (MIC) is > 50 µg/mL.

Take `O=[N+]([O-])c1ccc(/N=C(/Cc2ccc(Cl)cc2)c2ccc(O)c(O)c2O)cc1`: the MIC was > 50 µg/mL.

Regarding `Cc1ccc(/N=C(/Cc2ccc(Cl)cc2)c2ccc(O)c(O)c2O)cc1`, the minimum inhibitory concentration (MIC) is > 50 µg/mL.

`Oc1ccc(/C(Cc2ccc(F)cc2)=N\c2ccc(Cl)cc2)c(O)c1O`: the minimum inhibitory concentration (MIC) is > 50 µg/mL.

With `O=[N+]([O-])c1ccc(/N=C(/Cc2ccc(Cl)cc2)c2ccc(O)c(O)c2)cc1`, the minimal inhibitory concentration (MIC) is > 50 µg/mL.

A further experiment deals with Escherichia coli. Kind of experiment: Antibacterial activity against Escherichia coli ATCC 35218. Format: functional.
Consider `O=[N+]([O-])c1ccc(/N=C(/Cc2ccc(F)cc2)c2ccc(O)c(O)c2O)cc1`, for which the MIC worked out at 25 µg/mL (≈ 65.4 µM).

Take `Oc1ccc(/C(Cc2ccc(F)cc2)=N\c2ccc(Cl)cc2)cc1O`: the minimal inhibitory concentration (MIC) was 6.25 µg/mL (≈ 17.6 µM).

Compound `Oc1ccc(/N=C(/Cc2ccc(Cl)cc2)c2ccc(O)c(O)c2O)cc1` displayed an MIC of 25 µg/mL (≈ 67.6 µM).

For `Cc1ccc(/N=C(/Cc2ccc(Cl)cc2)c2ccc(O)c(O)c2)cc1`, the lowest concentration to inhibit growth (MIC) was 25 µg/mL (≈ 71.1 µM).

The compound `Oc1ccc(/N=C(/Cc2ccc(F)cc2)c2ccc(O)cc2O)cc1` registered a minimum inhibitory concentration (MIC) of 12.5 µg/mL (≈ 37.1 µM).

On to `O=[N+]([O-])c1ccc(/N=C(/Cc2ccc(F)cc2)c2ccc(O)c(O)c2)cc1`, for which 25 µg/mL (≈ 68.2 µM) was the least that counted as inhibitory (MIC).

`O=[N+]([O-])c1ccc(/N=C(/Cc2ccc(Cl)cc2)c2ccc(O)c(O)c2O)cc1` had a minimal inhibitory concentration (MIC) of 50 µg/mL (≈ 125 µM).

`Cc1ccc(/N=C(/Cc2ccc(Cl)cc2)c2ccc(O)c(O)c2O)cc1` showed a minimum inhibitory concentration (MIC) of 50 µg/mL (≈ 136 µM).

In turn, `Oc1ccc(/C(Cc2ccc(F)cc2)=N\c2ccc(Cl)cc2)c(O)c1O` registered a minimum inhibitory concentration (MIC) of 12.5 µg/mL (≈ 33.6 µM). Compared with the last compound, the MIC is about 4-fold lower.

`O=[N+]([O-])c1ccc(/N=C(/Cc2ccc(Cl)cc2)c2ccc(O)c(O)c2)cc1` showed an MIC of 25 µg/mL (≈ 65.3 µM).

A further experiment deals with Bacillus subtilis. Kind of experiment: Antibacterial activity against Bacillus subtilis ATCC 6633. Format: functional.
Take `O=[N+]([O-])c1ccc(/N=C(/Cc2ccc(F)cc2)c2ccc(O)c(O)c2O)cc1`: the lowest concentration to inhibit growth (MIC) was 50 µg/mL (≈ 131 µM).

For the compound `Oc1ccc(/C(Cc2ccc(F)cc2)=N\c2ccc(Cl)cc2)cc1O`, 25 µg/mL (≈ 70.3 µM) was the least that counted as inhibitory (MIC).

As to `Oc1ccc(/N=C(/Cc2ccc(Cl)cc2)c2ccc(O)c(O)c2O)cc1`, the MIC is 50 µg/mL (≈ 135 µM). This MIC lies about 2-fold higher than the previous one.

As to `Cc1ccc(/N=C(/Cc2ccc(Cl)cc2)c2ccc(O)c(O)c2)cc1`, the MIC turned out to be 50 µg/mL (≈ 142 µM).

Regarding `Oc1ccc(/N=C(/Cc2ccc(F)cc2)c2ccc(O)cc2O)cc1`, it took 50 µg/mL (≈ 148 µM) to inhibit growth (MIC).

Turning to `O=[N+]([O-])c1ccc(/N=C(/Cc2ccc(F)cc2)c2ccc(O)c(O)c2)cc1`, the MIC is 50 µg/mL (≈ 136 µM).

In the case of `O=[N+]([O-])c1ccc(/N=C(/Cc2ccc(Cl)cc2)c2ccc(O)c(O)c2O)cc1`, the MIC was determined as 50 µg/mL (≈ 125 µM).

`Cc1ccc(/N=C(/Cc2ccc(Cl)cc2)c2ccc(O)c(O)c2O)cc1` registered an MIC of 25 µg/mL (≈ 68 µM).

Compound `Oc1ccc(/C(Cc2ccc(F)cc2)=N\c2ccc(Cl)cc2)c(O)c1O` showed an MIC of 50 µg/mL (≈ 134 µM). Against the preceding compound, the MIC is about 2-fold higher.

For `O=[N+]([O-])c1ccc(/N=C(/Cc2ccc(Cl)cc2)c2ccc(O)c(O)c2)cc1`, the MIC was 25 µg/mL (≈ 65.3 µM). This MIC is about 2-fold lower than that of the compound before.

The subject of the next experiment is Trichophyton rubrum. Kind of experiment: Antifungal activity against Trichophyton rubrum ATCC 10218.
`O=C(Cc1ccc(F)cc1)c1ccc(O)c(O)c1`: the MIC is > 50 µg/mL.

For the compound `O=[N+]([O-])c1ccc(/N=C(/Cc2ccc(F)cc2)c2ccc(O)c(O)c2O)cc1`, the MIC is > 50 µg/mL.

For the compound `O=C(Cc1ccc(Cl)cc1)c1ccc(O)c(O)c1`, the minimal inhibitory concentration (MIC) is > 50 µg/mL.

In the case of `Oc1ccc(/C(Cc2ccc(F)cc2)=N\c2ccc(Cl)cc2)cc1O`, the MIC was > 50 µg/mL.

On to `Oc1ccc(/N=C(/Cc2ccc(Cl)cc2)c2ccc(O)c(O)c2O)cc1`, for which the minimum inhibitory concentration (MIC) is > 50 µg/mL.

As for `Cc1ccc(/N=C(/Cc2ccc(Cl)cc2)c2ccc(O)c(O)c2)cc1`, the MIC was > 50 µg/mL.

For the compound `Oc1ccc(/N=C(/Cc2ccc(F)cc2)c2ccc(O)cc2O)cc1`, the minimal inhibitory concentration (MIC) was > 50 µg/mL.

As for `O=[N+]([O-])c1ccc(/N=C(/Cc2ccc(F)cc2)c2ccc(O)c(O)c2)cc1`, the minimal inhibitory concentration (MIC) was > 50 µg/mL.

As to `O=[N+]([O-])c1ccc(/N=C(/Cc2ccc(Cl)cc2)c2ccc(O)c(O)c2O)cc1`, the MIC is > 50 µg/mL.

`Cc1ccc(/N=C(/Cc2ccc(Cl)cc2)c2ccc(O)c(O)c2O)cc1`: the MIC was > 50 µg/mL.

As to `Oc1ccc(/C(Cc2ccc(F)cc2)=N\c2ccc(Cl)cc2)c(O)c1O`, the MIC is > 50 µg/mL.

`O=[N+]([O-])c1ccc(/N=C(/Cc2ccc(Cl)cc2)c2ccc(O)c(O)c2)cc1`: the MIC is > 50 µg/mL.

The next experiment has as its system Staphylococcus aureus. Kind of experiment: Antibacterial activity against Staphylococcus aureus ATCC 6538. It is filed as functional.
`O=[N+]([O-])c1ccc(/N=C(/Cc2ccc(F)cc2)c2ccc(O)c(O)c2O)cc1` showed an MIC of 25 µg/mL (≈ 65.4 µM).

The compound `Oc1ccc(/C(Cc2ccc(F)cc2)=N\c2ccc(Cl)cc2)cc1O` displayed a minimal inhibitory concentration (MIC) of 25 µg/mL (≈ 70.3 µM).

For the compound `Oc1ccc(/N=C(/Cc2ccc(Cl)cc2)c2ccc(O)c(O)c2O)cc1`, the MIC is 25 µg/mL (≈ 67.6 µM).

For `Cc1ccc(/N=C(/Cc2ccc(Cl)cc2)c2ccc(O)c(O)c2)cc1`, it took 50 µg/mL (≈ 142 µM) to inhibit growth (MIC). Compared with the last compound, the MIC is about 2-fold higher.

The compound `Oc1ccc(/N=C(/Cc2ccc(F)cc2)c2ccc(O)cc2O)cc1` gave an MIC of 25 µg/mL (≈ 74.1 µM). This MIC lies about 2-fold lower than the previous one.

For the compound `O=[N+]([O-])c1ccc(/N=C(/Cc2ccc(F)cc2)c2ccc(O)c(O)c2)cc1`, the minimal inhibitory concentration (MIC) turned out to be 50 µg/mL (≈ 136 µM).

The compound `O=[N+]([O-])c1ccc(/N=C(/Cc2ccc(Cl)cc2)c2ccc(O)c(O)c2O)cc1` returned an MIC of 50 µg/mL (≈ 125 µM).

`Cc1ccc(/N=C(/Cc2ccc(Cl)cc2)c2ccc(O)c(O)c2O)cc1` had an MIC of 25 µg/mL (≈ 68 µM).

With `Oc1ccc(/C(Cc2ccc(F)cc2)=N\c2ccc(Cl)cc2)c(O)c1O`, the MIC came to 50 µg/mL (≈ 134 µM).

With `O=[N+]([O-])c1ccc(/N=C(/Cc2ccc(Cl)cc2)c2ccc(O)c(O)c2)cc1`, the minimum inhibitory concentration (MIC) stood at 12.5 µg/mL (≈ 32.7 µM).

In the next experiment the test system is Pseudomonas aeruginosa. Kind of experiment: Antibacterial activity against Pseudomonas aeruginosa ATCC 2785. Format: functional.
`O=[N+]([O-])c1ccc(/N=C(/Cc2ccc(F)cc2)c2ccc(O)c(O)c2O)cc1` gave a minimum inhibitory concentration (MIC) of 25 µg/mL (≈ 65.4 µM).

In turn, `Oc1ccc(/C(Cc2ccc(F)cc2)=N\c2ccc(Cl)cc2)cc1O` had a minimum inhibitory concentration (MIC) of 6.25 µg/mL (≈ 17.6 µM).

`Oc1ccc(/N=C(/Cc2ccc(Cl)cc2)c2ccc(O)c(O)c2O)cc1` had an MIC of 50 µg/mL (≈ 135 µM).

Take `Cc1ccc(/N=C(/Cc2ccc(Cl)cc2)c2ccc(O)c(O)c2)cc1`: the minimum inhibitory concentration (MIC) was 50 µg/mL (≈ 142 µM).

Compound `Oc1ccc(/N=C(/Cc2ccc(F)cc2)c2ccc(O)cc2O)cc1` registered an MIC of 25 µg/mL (≈ 74.1 µM).

As to `O=[N+]([O-])c1ccc(/N=C(/Cc2ccc(F)cc2)c2ccc(O)c(O)c2)cc1`, 25 µg/mL (≈ 68.2 µM) was the least that counted as inhibitory (MIC).

With `O=[N+]([O-])c1ccc(/N=C(/Cc2ccc(Cl)cc2)c2ccc(O)c(O)c2O)cc1`, 50 µg/mL (≈ 125 µM) was the least that counted as inhibitory (MIC).

As for `Cc1ccc(/N=C(/Cc2ccc(Cl)cc2)c2ccc(O)c(O)c2O)cc1`, the lowest concentration to inhibit growth (MIC) was 50 µg/mL (≈ 136 µM).

Compound `Oc1ccc(/C(Cc2ccc(F)cc2)=N\c2ccc(Cl)cc2)c(O)c1O` showed an MIC of 12.5 µg/mL (≈ 33.6 µM).

`O=[N+]([O-])c1ccc(/N=C(/Cc2ccc(Cl)cc2)c2ccc(O)c(O)c2)cc1` returned a minimal inhibitory concentration (MIC) of 25 µg/mL (≈ 65.3 µM).

Another experiment concerns Candida albicans. Kind of experiment: Antifungal activity against Candida albicans ATCC 10231. Format: functional.
For `O=C(Cc1ccc(F)cc1)c1ccc(O)c(O)c1`, the MIC was > 50 µg/mL.

Take `O=[N+]([O-])c1ccc(/N=C(/Cc2ccc(F)cc2)c2ccc(O)c(O)c2O)cc1`: the MIC was > 50 µg/mL.

Turning to `O=C(Cc1ccc(Cl)cc1)c1ccc(O)c(O)c1`, the minimal inhibitory concentration (MIC) was > 50 µg/mL.

In the case of `Oc1ccc(/C(Cc2ccc(F)cc2)=N\c2ccc(Cl)cc2)cc1O`, the minimal inhibitory concentration (MIC) is > 50 µg/mL.

In the case of `Oc1ccc(/N=C(/Cc2ccc(Cl)cc2)c2ccc(O)c(O)c2O)cc1`, the minimal inhibitory concentration (MIC) was > 50 µg/mL.

For `Cc1ccc(/N=C(/Cc2ccc(Cl)cc2)c2ccc(O)c(O)c2)cc1`, the minimal inhibitory concentration (MIC) is > 50 µg/mL.

As for `Oc1ccc(/N=C(/Cc2ccc(F)cc2)c2ccc(O)cc2O)cc1`, the minimum inhibitory concentration (MIC) was > 50 µg/mL.

For `O=[N+]([O-])c1ccc(/N=C(/Cc2ccc(F)cc2)c2ccc(O)c(O)c2)cc1`, the MIC was > 50 µg/mL.

In the case of `O=[N+]([O-])c1ccc(/N=C(/Cc2ccc(Cl)cc2)c2ccc(O)c(O)c2O)cc1`, the MIC was > 50 µg/mL.

As for `Cc1ccc(/N=C(/Cc2ccc(Cl)cc2)c2ccc(O)c(O)c2O)cc1`, the MIC was > 50 µg/mL.

As to `Oc1ccc(/C(Cc2ccc(F)cc2)=N\c2ccc(Cl)cc2)c(O)c1O`, the minimal inhibitory concentration (MIC) is > 50 µg/mL.

Consider `O=[N+]([O-])c1ccc(/N=C(/Cc2ccc(Cl)cc2)c2ccc(O)c(O)c2)cc1`, for which the MIC is > 50 µg/mL.
